According to patent publication US9260417B2, “Therapeutic methods and compositions involving allosteric kinase inhibition” (AMITECH THERAPEUTIC SOLUTIONS, INC., priority 2010, dated 2016):
Read-outs that look alike come from different tables or passages of the source.

What was measured:
AKT1 = AKT1 (Homo sapiens (Human), UniProt P31749); assay: In vitro kinase panel (SelectScreen); assay type: biochemical
Text: (§1) In vitro kinase screen and competitive binding assay. Sorafenib as well as test compounds were submitted to Invitrogen and screened using their SelectScreen™ Profiling Service.

CDK2 = CDK2 (Homo sapiens (Human), UniProt P24941); assay: In vitro kinase panel (SelectScreen); assay type: biochemical
Text: as §1

CK2 alpha 1 = CK2 alpha 1 (Homo sapiens (Human), UniProt P68400); assay: In vitro kinase panel (SelectScreen); assay type: biochemical
Text: as §1

CRAF Y340D Y341D = CRAF Y340D Y341D (Homo sapiens (Human), UniProt P04049, Y340D/Y341D); assay: In vitro kinase panel (SelectScreen); assay type: biochemical
Text: as §1

ERK1 = ERK1 (Homo sapiens (Human), UniProt P27361); assay: In vitro kinase panel (SelectScreen); assay type: biochemical
Text: as §1

ERK2 = ERK2 (Homo sapiens (Human), UniProt P28482); assay: In vitro kinase panel (SelectScreen); assay type: biochemical
Text: as §1

FAK2 = FAK2 (Homo sapiens (Human), UniProt Q14289); assay: In vitro kinase panel (SelectScreen); assay type: biochemical
Text: as §1

FGFR1 = FGFR1 (Homo sapiens (Human), UniProt P11362); assay: In vitro kinase panel (SelectScreen); assay type: biochemical
Text: as §1

FGFR2 = FGFR2 (Homo sapiens (Human), UniProt P21802); assay: In vitro kinase panel (SelectScreen); assay type: biochemical
Text: as §1

FGFR3 = FGFR3 (Homo sapiens (Human), UniProt P22607); assay: In vitro kinase panel (SelectScreen); assay type: biochemical
Text: as §1

FGFR3 K650E = FGFR3 K650E (Homo sapiens (Human), UniProt P22607, K650E); assay: In vitro kinase panel (SelectScreen); assay type: biochemical
Text: as §1

FGFR4 = FGFR4 (Homo sapiens (Human), UniProt P22455); assay: In vitro kinase panel (SelectScreen); assay type: biochemical
Text: as §1

FLT1 (VEGFR1) = FLT1 (VEGFR1) (Homo sapiens (Human), UniProt P17948); assay: In vitro kinase panel (SelectScreen); assay type: biochemical
Text: as §1

IGF1R = IGF1R (Homo sapiens (Human), UniProt P08069); assay: In vitro kinase panel (SelectScreen); assay type: biochemical
Text: as §1

JNK1 = JNK1 (Homo sapiens (Human), UniProt P45983); assay: In vitro kinase panel (SelectScreen); assay type: biochemical
Text: as §1

JNK2 = JNK2 (Homo sapiens (Human), UniProt P45984); assay: In vitro kinase panel (SelectScreen); assay type: biochemical
Text: as §1

JNK3 = JNK3 (Homo sapiens (Human), UniProt P53779); assay: In vitro kinase panel (SelectScreen); assay type: biochemical
Text: as §1

KIT = KIT (Homo sapiens (Human), UniProt P10721); assay: In vitro kinase panel (SelectScreen); assay type: biochemical
Text: as §1

MAPKAPK2 = MAPKAPK2 (Homo sapiens (Human), UniProt P49137); assay: In vitro kinase panel (SelectScreen); assay type: biochemical
Text: as §1

MEK1 = MEK1 (Homo sapiens (Human), UniProt Q02750); assay: In vitro kinase panel (SelectScreen); assay type: biochemical
Text: as §1

MEK2 = MEK2 (Homo sapiens (Human), UniProt P36507); assay: In vitro kinase panel (SelectScreen); assay type: biochemical
Text: as §1

MET (cMet) = MET (cMet) (Homo sapiens (Human), UniProt P08581); assay: In vitro kinase panel (SelectScreen); assay type: biochemical
Text: as §1

MET M1250T = MET M1250T (Homo sapiens (Human), UniProt P08581, M1250T); assay: In vitro kinase panel (SelectScreen); assay type: biochemical
Text: as §1

PAK2 = PAK2 (Homo sapiens (Human), UniProt Q13177); assay: In vitro kinase panel (SelectScreen); assay type: biochemical
Text: as §1

PDGFR beta = PDGFR beta (Homo sapiens (Human), UniProt P09619); assay: In vitro kinase panel (SelectScreen); assay type: biochemical
Text: as §1

PKC alpha = PKC alpha (Homo sapiens (Human), UniProt P17252); assay: In vitro kinase panel (SelectScreen); assay type: biochemical
Text: as §1

PKC beta I = PKC beta I (Homo sapiens (Human), UniProt P05771); assay: In vitro kinase panel (SelectScreen); assay type: biochemical
Text: as §1

PKC beta II = PKC beta II (Homo sapiens (Human), UniProt P05771); assay: In vitro kinase panel (SelectScreen); assay type: biochemical
Text: as §1

PKC delta = PKC delta (Homo sapiens (Human), UniProt Q05655); assay: In vitro kinase panel (SelectScreen); assay type: biochemical
Text: as §1

PKC epsilon = PKC epsilon (Homo sapiens (Human), UniProt Q02156); assay: In vitro kinase panel (SelectScreen); assay type: biochemical
Text: as §1

PKC eta = PKC eta (Homo sapiens (Human), UniProt P24723); assay: In vitro kinase panel (SelectScreen); assay type: biochemical
Text: as §1

PKC gamma = PKC gamma (Homo sapiens (Human), UniProt P05129); assay: In vitro kinase panel (SelectScreen); assay type: biochemical
Text: as §1

PKC iota = PKC iota (Homo sapiens (Human), UniProt P41743); assay: In vitro kinase panel (SelectScreen); assay type: biochemical
Text: as §1

FLT3 = FLT3 (Homo sapiens (Human), UniProt P36888); assay: In vitro kinase panel (SelectScreen); assay type: biochemical
Procedure: (§2) In vitro kinase screen and competitive binding assay. […] 11-point Kd curves were determined for hits identified during the initial screen.

FLT3 D835Y = FLT3 D835Y (Homo sapiens (Human), UniProt P36888, D835Y); assay: In vitro kinase panel (SelectScreen); assay type: biochemical
Procedure: as §2

HUVECs = assay: XTT viability assay in HUVECs; assay type: cell-based, human; settings: 72 h, read-out: EC50, endothelial cell viability
Procedure: FIG. 1A-1F illustrate molecular modeling and assay screening to compounds for dual targeting of PDGFRβ and RAF. (FIG. 1A) Molecular modeling of the amino-triazole based small molecules in PDGFRβ and RAF, respectively. […] A homology model of PDGFRβ was created with a structurally-related family member (VEGFR2, PDB 1y6b). […] To autophosphorylation, immunoblots were carried out with a phospho-tyrosine antibody. Membranes were stripped and reprobed for total PDGFRβ levels. […] (FIG. 1D) Structure activity relationships of the amino-triazole based small molecules comparing both PDGFRβ and B-RAF. […] Curves represent the average of 3 separate experiments, error bars represent ±SEM.
For XTT assays, cells were grown in 96-well plates overnight and all assays were conducted in growth medium will full serum and additives. […] Dose-response curves were plotted using GraphPad Prism software and EC50s were calculated using this program.

Chain of CK2 alpha 1 (P68400 whole entry): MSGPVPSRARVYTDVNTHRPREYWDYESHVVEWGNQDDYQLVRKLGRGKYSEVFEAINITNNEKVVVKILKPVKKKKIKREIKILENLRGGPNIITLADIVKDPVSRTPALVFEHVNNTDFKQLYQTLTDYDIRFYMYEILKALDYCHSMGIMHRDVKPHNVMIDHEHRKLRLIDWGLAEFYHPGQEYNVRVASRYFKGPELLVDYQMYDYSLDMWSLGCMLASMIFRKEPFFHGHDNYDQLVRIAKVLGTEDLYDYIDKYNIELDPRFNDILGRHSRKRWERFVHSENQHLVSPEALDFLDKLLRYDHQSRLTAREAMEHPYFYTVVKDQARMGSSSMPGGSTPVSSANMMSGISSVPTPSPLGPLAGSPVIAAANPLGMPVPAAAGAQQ
Chain of KIT (P10721 26-976): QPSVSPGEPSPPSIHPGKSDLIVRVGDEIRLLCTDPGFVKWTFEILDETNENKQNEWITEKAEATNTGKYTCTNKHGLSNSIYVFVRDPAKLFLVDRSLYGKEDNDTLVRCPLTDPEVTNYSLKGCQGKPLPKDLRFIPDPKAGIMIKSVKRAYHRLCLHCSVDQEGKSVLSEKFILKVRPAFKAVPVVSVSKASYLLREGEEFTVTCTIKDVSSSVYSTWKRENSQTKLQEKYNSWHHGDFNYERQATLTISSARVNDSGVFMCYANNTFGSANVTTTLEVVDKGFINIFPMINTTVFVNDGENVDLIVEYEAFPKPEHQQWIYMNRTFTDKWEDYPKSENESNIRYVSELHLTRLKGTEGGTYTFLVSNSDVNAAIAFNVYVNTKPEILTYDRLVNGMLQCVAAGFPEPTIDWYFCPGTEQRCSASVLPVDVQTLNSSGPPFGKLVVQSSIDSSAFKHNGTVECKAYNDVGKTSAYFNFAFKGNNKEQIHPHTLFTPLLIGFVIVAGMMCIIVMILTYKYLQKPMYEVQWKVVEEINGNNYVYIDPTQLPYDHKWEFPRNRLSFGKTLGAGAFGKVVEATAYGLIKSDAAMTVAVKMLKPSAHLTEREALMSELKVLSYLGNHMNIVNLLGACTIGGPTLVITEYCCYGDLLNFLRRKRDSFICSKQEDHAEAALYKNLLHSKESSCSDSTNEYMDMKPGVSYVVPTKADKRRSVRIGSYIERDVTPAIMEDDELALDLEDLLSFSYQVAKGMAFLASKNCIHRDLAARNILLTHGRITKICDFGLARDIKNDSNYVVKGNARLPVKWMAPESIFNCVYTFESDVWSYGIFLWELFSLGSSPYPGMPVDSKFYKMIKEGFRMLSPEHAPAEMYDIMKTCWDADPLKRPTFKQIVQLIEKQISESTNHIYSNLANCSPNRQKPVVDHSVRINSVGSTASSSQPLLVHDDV
Chain of AKT1 (P31749 whole entry): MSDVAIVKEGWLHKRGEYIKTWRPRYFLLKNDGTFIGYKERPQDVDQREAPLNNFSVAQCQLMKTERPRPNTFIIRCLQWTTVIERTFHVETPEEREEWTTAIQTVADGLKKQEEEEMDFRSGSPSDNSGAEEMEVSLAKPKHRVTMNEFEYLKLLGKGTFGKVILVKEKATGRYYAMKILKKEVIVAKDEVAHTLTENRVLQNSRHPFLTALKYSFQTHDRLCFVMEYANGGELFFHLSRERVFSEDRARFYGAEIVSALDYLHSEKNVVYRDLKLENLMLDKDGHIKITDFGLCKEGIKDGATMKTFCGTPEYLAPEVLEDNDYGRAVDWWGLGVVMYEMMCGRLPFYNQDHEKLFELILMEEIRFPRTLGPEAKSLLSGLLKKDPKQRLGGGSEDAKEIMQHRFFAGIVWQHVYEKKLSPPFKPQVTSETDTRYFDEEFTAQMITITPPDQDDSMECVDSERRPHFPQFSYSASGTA
Chain of IGF1R (P08069 31-1367): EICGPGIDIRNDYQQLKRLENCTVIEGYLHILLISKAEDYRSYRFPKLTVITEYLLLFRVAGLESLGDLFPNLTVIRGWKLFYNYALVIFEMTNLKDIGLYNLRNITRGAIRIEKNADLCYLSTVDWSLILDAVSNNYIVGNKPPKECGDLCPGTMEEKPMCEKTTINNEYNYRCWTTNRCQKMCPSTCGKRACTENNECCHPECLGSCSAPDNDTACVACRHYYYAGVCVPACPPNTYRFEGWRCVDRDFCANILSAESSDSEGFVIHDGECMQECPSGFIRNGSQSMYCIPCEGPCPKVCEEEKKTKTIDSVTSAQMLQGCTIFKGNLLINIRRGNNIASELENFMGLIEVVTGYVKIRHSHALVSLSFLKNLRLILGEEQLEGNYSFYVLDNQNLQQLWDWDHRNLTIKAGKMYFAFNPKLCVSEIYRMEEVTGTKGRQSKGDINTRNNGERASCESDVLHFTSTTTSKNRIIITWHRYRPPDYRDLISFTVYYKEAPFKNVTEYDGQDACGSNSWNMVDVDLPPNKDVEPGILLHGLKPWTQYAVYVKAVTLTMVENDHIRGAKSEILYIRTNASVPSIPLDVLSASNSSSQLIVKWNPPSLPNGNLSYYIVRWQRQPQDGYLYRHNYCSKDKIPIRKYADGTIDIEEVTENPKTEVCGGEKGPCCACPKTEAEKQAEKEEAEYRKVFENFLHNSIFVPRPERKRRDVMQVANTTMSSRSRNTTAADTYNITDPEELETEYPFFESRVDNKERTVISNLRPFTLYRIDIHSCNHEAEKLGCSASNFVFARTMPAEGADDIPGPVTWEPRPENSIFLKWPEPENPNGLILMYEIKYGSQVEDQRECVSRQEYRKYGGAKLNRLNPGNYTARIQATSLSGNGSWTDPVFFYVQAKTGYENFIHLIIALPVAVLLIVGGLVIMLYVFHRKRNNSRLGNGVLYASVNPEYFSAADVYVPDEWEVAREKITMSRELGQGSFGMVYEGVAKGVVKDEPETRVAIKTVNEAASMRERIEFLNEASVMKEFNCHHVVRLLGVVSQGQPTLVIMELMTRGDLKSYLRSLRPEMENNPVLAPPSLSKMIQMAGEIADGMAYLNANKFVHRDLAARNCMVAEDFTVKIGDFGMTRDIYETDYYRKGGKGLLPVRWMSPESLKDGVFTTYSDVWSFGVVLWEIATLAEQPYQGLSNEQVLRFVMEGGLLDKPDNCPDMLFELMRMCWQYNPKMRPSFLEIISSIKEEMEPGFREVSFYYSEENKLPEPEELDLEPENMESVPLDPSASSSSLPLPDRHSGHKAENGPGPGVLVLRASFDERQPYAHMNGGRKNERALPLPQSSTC
Chain of PKC iota (P41743 whole entry): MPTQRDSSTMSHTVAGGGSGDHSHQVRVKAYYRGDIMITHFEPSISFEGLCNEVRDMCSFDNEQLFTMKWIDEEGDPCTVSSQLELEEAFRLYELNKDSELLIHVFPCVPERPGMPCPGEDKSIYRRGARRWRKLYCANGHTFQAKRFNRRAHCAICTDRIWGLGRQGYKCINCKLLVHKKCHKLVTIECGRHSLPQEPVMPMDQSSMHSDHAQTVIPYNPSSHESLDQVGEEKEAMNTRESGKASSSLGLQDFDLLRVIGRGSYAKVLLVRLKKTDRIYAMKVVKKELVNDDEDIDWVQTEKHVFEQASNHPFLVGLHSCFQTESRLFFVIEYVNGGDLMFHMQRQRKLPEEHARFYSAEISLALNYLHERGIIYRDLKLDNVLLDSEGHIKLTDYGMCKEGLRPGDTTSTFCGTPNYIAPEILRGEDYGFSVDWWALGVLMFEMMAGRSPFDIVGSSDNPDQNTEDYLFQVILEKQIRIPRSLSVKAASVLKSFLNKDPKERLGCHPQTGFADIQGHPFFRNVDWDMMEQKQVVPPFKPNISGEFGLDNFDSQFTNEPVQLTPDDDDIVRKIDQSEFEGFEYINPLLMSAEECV
Chain of FLT1 (VEGFR1) (P17948 27-1338): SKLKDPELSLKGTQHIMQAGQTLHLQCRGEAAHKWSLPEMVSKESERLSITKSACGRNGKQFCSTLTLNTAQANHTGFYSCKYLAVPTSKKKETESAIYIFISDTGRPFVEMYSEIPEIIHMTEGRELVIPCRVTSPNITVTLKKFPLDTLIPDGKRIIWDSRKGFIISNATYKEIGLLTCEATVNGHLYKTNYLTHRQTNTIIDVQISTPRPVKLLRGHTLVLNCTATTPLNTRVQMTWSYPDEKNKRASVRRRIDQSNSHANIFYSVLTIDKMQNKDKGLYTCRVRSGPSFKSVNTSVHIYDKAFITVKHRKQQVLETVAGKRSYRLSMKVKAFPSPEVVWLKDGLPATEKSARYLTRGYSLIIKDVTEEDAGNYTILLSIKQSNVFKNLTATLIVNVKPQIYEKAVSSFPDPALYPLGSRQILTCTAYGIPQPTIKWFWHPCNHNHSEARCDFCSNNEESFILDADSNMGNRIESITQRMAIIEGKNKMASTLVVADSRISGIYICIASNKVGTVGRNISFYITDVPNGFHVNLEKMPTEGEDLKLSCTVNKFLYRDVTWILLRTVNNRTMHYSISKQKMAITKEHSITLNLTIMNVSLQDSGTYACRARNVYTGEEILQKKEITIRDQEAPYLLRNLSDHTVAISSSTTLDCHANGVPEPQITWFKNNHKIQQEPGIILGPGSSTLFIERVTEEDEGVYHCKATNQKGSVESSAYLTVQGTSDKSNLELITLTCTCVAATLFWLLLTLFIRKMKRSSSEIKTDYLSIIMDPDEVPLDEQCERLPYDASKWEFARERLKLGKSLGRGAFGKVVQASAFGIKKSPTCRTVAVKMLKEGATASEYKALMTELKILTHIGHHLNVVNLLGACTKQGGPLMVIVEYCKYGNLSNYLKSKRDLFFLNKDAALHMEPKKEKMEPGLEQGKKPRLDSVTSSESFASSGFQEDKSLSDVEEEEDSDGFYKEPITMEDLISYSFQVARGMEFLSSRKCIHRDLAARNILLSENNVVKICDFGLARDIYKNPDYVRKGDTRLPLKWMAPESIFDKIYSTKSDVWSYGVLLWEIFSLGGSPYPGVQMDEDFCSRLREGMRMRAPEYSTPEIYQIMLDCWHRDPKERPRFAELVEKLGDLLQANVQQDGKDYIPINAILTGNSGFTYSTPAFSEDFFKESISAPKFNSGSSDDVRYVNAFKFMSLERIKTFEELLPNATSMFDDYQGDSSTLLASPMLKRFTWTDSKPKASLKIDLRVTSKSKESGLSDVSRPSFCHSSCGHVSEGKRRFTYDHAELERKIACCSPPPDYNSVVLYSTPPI

Compound: CSc1nc(N)cc(Oc2ccc(-c3nnc(Nc4cccc(C(F)(F)F)c4)[nH]3)cc2)n1 [Compound 6]
- % Inhibition at 10 μM (AKT1): 2%
- % Inhibition at 10 μM (CDK2): 2%
- % Inhibition at 10 μM (CK2 alpha 1): 0%
- % Inhibition at 10 μM (CRAF Y340D Y341D): 3%
- % Inhibition at 10 μM (ERK1): 2%
- % Inhibition at 10 μM (ERK2): −5%
- % Inhibition at 10 μM (FAK2): −4%
- % Inhibition at 10 μM (FGFR1): 6%
- % Inhibition at 10 μM (FGFR2): −2%
- % Inhibition at 10 μM (FGFR3): −13%
- % Inhibition at 10 μM (FGFR3 K650E): −1%
- % Inhibition at 10 μM (FGFR4): −7%
- % Inhibition at 10 μM (FLT1 (VEGFR1)): −2%
- % Inhibition at 10 μM (IGF1R): 0%
- % Inhibition at 10 μM (JNK1): −3%
- % Inhibition at 10 μM (JNK2): −4%
- % Inhibition at 10 μM (JNK3): −8%
- % Inhibition at 10 μM (KIT): 28%
- % Inhibition at 10 μM (MAPKAPK2; 10 μM, MAPKAPK2): 2%
- % Inhibition at 10 μM (MEK1): −2%
- % Inhibition at 10 μM (MEK2): −6%
- % Inhibition at 10 μM (MET (cMet)): 3%
- % Inhibition at 10 μM (MET M1250T): −1%
- % Inhibition at 10 μM (PAK2): 1%
- % Inhibition at 10 μM (PDGFR beta): 20%
- % Inhibition at 10 μM (PKC alpha): −1%
- % Inhibition at 10 μM (PKC beta I): 2%
- % Inhibition at 10 μM (PKC beta II): −4%
- % Inhibition at 10 μM (PKC delta): −1%
- % Inhibition at 10 μM (PKC epsilon): −1%
- % Inhibition at 10 μM (PKC eta): 3%
- % Inhibition at 10 μM (PKC gamma): 5%
- % Inhibition at 10 μM (PKC iota): 0%
- % Inhibition at 10 μM (FLT3): −2%
- % Inhibition at 10 μM (FLT3 D835Y): 9%
- EC50 (HUVECs; HUVECs, full growth medium containing 10% FBS): 0.54 µM

Compound: CNC(=O)c1cc(Oc2ccc(NC(=O)Nc3ccc(Cl)c(C(F)(F)F)c3)cc2)ccn1 [sorafenib, reference compound]
- inhibition at 10 µM (AKT1): 2%
- inhibition at 10 µM (CDK2): 2%
- inhibition at 10 µM (CK2 alpha 1): -3%
- inhibition at 10 µM (CRAF Y340D Y341D): 95%
- inhibition at 10 µM (ERK1): 3%
- inhibition at 10 µM (ERK2): 0%
- inhibition at 10 µM (FAK2): -3%
- inhibition at 10 µM (FGFR1): 44%
- inhibition at 10 µM (FGFR2): 83%
- inhibition at 10 µM (FGFR3): 37%
- inhibition at 10 µM (FGFR3 K650E): 78%
- inhibition at 10 µM (FGFR4): 7%
- inhibition at 10 µM (FLT1 (VEGFR1)): 93%
- inhibition at 10 µM (IGF1R): -3%
- inhibition at 10 µM (JNK1): -2%
- inhibition at 10 µM (JNK2): 10%
- inhibition at 10 µM (JNK3): -4%
- inhibition at 10 µM (KIT): 37%
- inhibition at 10 µM (MAPKAPK2; read-out: % Inhibition at 10 μM): 2%
- inhibition at 10 µM (MEK1): 0%
- inhibition at 10 µM (MEK2): -4%
- inhibition at 10 µM (MET (cMet)): 2%
- inhibition at 10 µM (MET M1250T): 3%
- inhibition at 10 µM (PAK2): 2%
- inhibition at 10 µM (PDGFR beta): 93%
- inhibition at 10 µM (PKC alpha): -2%
- inhibition at 10 µM (PKC beta I): -1%
- inhibition at 10 µM (PKC beta II): -3%
- inhibition at 10 µM (PKC delta): -4%
- inhibition at 10 µM (PKC epsilon): -2%
- inhibition at 10 µM (PKC eta): 2%
- inhibition at 10 µM (PKC gamma): -3%
- inhibition at 10 µM (PKC iota): -2%
- inhibition at 10 µM (FLT3): 9%
- inhibition at 10 µM (FLT3 D835Y): 72%
- EC50 (HUVECs; Homo sapiens, HUVEC): 13.2 µM
